Assay results taken from US20240166587A1, “SARS-CoV-2 inhibitors - artificial compounds” (priority 2021, published 2024).
Values joined by “and” are separate entries in the source; they are usually repeats but may differ in a detail not shown here. Identical values can stand only once. Like-named read-outs stand apart in the source and are kept apart here.

How the values were obtained:
SARS-CoV-2 [1] = format: cell-based; details: Vero cells; for Experiment 2: repeat of TCID50 assay with a dose of 50 uM / Experiment 2: Fold reduction of TCID50 / Experiment 3: repeat of TCID50 assay with a dose of 50 uM / Experiment 3: Fold reduction of TCID50: substance 50 μM; for Experiment 2: Fold reduction of TCID50: experiment 2, versus DMSO ctrl; for Experiment 3: Fold reduction of TCID50: experiment 3, versus DMSO ctrl
SARS-CoV-2 [2] = format: cell-based; details: Vero cells, different concentrations, 48 hours
SARS-CoV-2 [3] = format: cell-based; details: for effect on virus proliferation after short term incubation: versus untreated controls
[4] = target: T1, RBD to ACE2 receptor binding (Severe acute respiratory syndrome coronavirus 2, UniProt P0DTC2); test: Molecular interaction assay to detect inhibition of RBD to ACE2 receptor binding; details: for inhibitory effect on binding to ACE2 receptor: His-tagged RBD, plate bound ACE2
T1 construct: 200 ng His-tagged RBD was incubated
Method: The molecular interaction assay to detect inhibition of RBD to ACE2 receptor binding was performed as described (Gattinger et al., Allergy, 76 (2021), 878-883) with following alterations: 200 ng His-tagged RBD was incubated with various doses (100, 50, 25, 12.2, and 6 mM) of substance X for three hours at RT followed by a 3-hours overlay onto plate bound ACE2 (2 μg/ml). Bound RBD was then detected with a mouse monoclonal anti-His antibody followed by an HRP-labelled anti-mouse IgG1 antibody and detected with ABTS detected. All measurements were performed in duplicates with a variation of <5%.

SARS-CoV-2 [5] = format: cell-based; details: Vero E6, 48 hrs

Compound	Experiment 1: TCID50 assay with 2 doses/substance, 10 μM (SARS-CoV-2 [1])	Experiment 2: repeat of TCID50 assay with a dose of 50 uM (SARS-CoV-2 [1])	Experiment 2: Fold reduction of TCID50 (SARS-CoV-2 [1]) [fold]	Experiment 3: repeat of TCID50 assay with a dose of 50 uM (SARS-CoV-2 [1])	Experiment 3: Fold reduction of TCID50 (SARS-CoV-2 [1])	Experiment 1: TCID50 assay with 2 doses/substance, 100 μM (SARS-CoV-2 [1])	inhibition of virus proliferation (SARS-CoV-2 [2])	ct values after short term incubation (SARS-CoV-2 [3]; 25 μM for one hour)	ct values after short term incubation (SARS-CoV-2 [3]; 50 μM for one hour)	effect on virus proliferation after short term incubation (SARS-CoV-2 [3])	inhibition at 100 µM ([4]; 100 μM) [%]	inhibitory effect on binding to ACE2 receptor [4]	inhibition of viral replication (SARS-CoV-2 [5]; 80 μM)	inhibition of viral replication (SARS-CoV-2 [5]; 100 μM)
Oc1cc(/C=C/c2cc(O)c(O)c(O)c2)cc(O)c1O [Compound X, 3,3′,4,4′,5,5′-hexahydroxy-trans-stilbene]	5.88 × 10^4 TCID50/mL	3.16 × 10^3 TCID50/mL	99.7	1.95 × 10^3 TCID50/mL	2107 fold and 2107.2 fold	4.64 × 10^2 TCID50/mL	inhibition of virus proliferation	significantly increased	significantly increased	could inhibit virus proliferation in a concentration dependent manner	21 to 31	could inhibit binding to ACE2 in a concentration dependent manner	inhibit viral replication completely	inhibit viral replication completely
Oc1ccc(/C=C/c2cc(O)cc(O)c2)cc1 [trihydroxystilbene, trans-3,5,4′-trihydroxystilbene]	–	–	–	–	–	–	–	–	–	–	–	–	–	low inhibition of viral replication
(−) epigallocatechin gallate [Compound IV]	3.36 × 10^4 TCID50/mL	3.16 × 10^3 TCID50/mL	99.7	5.12 × 10^3 TCID50/mL	802 fold and 802.3 fold	cytotoxic	inhibition of virus proliferation	–	–	did not have any effects on the virus proliferation	–	did not show any inhibitory effects	–	–
(−)-gallocatechin gallate [VIII]	2.15 × 10^5 TCID50/mL	3.16 × 10^3 TCID50/mL	99.7	8 × 10^5 TCID50/mL	5.14 fold	4.64 × 10^2 TCID50/mL	inhibition of virus proliferation	–	–	did not have any effects on the virus proliferation	–	did not show any inhibitory effects	–	–
O=C(O)c1cc(O)c(O)c(O)c1 [Compound I, gallic acid]	3.16 × 10^5 TCID50/mL	3.16 × 10^4 TCID50/mL	9.97	4.44 × 10^5 TCID50/mL	9.27 fold	3.56 × 10^5 TCID50/mL	–	–	–	–	–	–	–	–
Oc1cc(O)c2c(c1)O[C@H](c1cc(O)c(O)c(O)c1)[C@H](O)C2 [VII, (−)-epigallocatechin]	2.15 × 10^4 TCID50/mL	2.89 × 10^5 TCID50/mL	1.09	3.80 × 10^5 TCID50/mL	7.09 fold	3.16 × 10^3 TCID50/mL	–	–	–	–	–	–	–	–
